Source: patent US20250144067A1, “PERSONALIZED STARVATION THERAPY FOR CANCER” (Faeth Therapeutics, Inc., priority 2021, published 2025)
Where a name gives a salt, the structure may show the parent alone. Peptide text beside a SMILES is read from it.

Assays:
[1] = test system: NCI-H292 lung cancer cells; assay: FDA drug screening, complete media vs cholesterol-free media with simvastatin (TABLE 2); assay type: cell-based, human; settings: for Cholesterol-free media + simvastatin (0.04 μM) / Complete Media: NCI-H292 cells; for Difference: >0 enhanced anti-cancer activity, about 0 neutral, <0 antagonist
[2] = test system: NCI-H292 lung cancer cells; assay: FDA drug screening, complete media vs cholesterol-free media without statin (TABLE 1); assay type: cell-based, human; settings: for Difference: about 0 neutral
[3] = drug in cholesterol-free media with simvastatin 0.04 μM
[4] = complete media vs cholesterol-free media + simvastatin (0.04 μM)
[5] = Complete minus Cholesterol-free, >0 enhanced anti-cancer activity, <0 antagonist
[6] = NCI-H292 cells, cholesterol-free media without statin
[7] = FDA drug library screen, cholesterol-free media with simvastatin 0.04 μM
[8] = FDA drug library screen, complete media
[9] = NCI-H292 cells, cholesterol-free media without statin, FDA drug library screen
[10] = NCI-H292 cells, complete media, FDA drug library screen
[11] = complete vs cholesterol-free media, >0 enhanced anti-cancer activity, <0 antagonist
[12] = cholesterol-free media with simvastatin 0.04 μM, cell growth value in FDA drug screen
[13] = complete media, cell growth value in FDA drug screen
[14] = complete media minus cholesterol-free media + simvastatin
[15] = FDA library drug in cholesterol-free media with simvastatin 0.04 μM
[16] = FDA library drug in complete media
[17] = Complete minus Cholesterol-free, greater than 0 enhanced anti-cancer activity, below 0 antagonist
[18] = NCI-H292 cells, FDA drug library screen, cholesterol-free media without statin
[19] = NCI-H292 cells, FDA drug library screen, complete media
[20] = Complete minus Cholesterol-free, greater than 0 enhanced anti-cancer activity, below 0 antagonists
[21] = NCI-H292 cells in cholesterol-free media without statin
[22] = NCI-H292 cells in complete media
[23] = cholesterol-free media with simvastatin 0.04 μM, FDA drug library screen (TABLE 2)
[24] = complete media, FDA drug library screen (TABLE 2)
[25] = complete media minus cholesterol-free media + simvastatin (0.04 μM)

In the case of `COC(=O)[C@H]1[C@H]2C[C@@H]3c4[nH]c5ccccc5c4CCN3C[C@H]2C[C@@H](OC(=O)c2cc(OC)c(OC)c(OC)c2)[C@@H]1OC` [Deserpidine], the “Cholesterol-free media + simvastatin (0.04 μM)” value [1, 3] is reported as 1.05, the “Complete Media” value ([1]; drug in complete media) is reported as 0.8141 and the Difference [1, 4] is reported as −0.24. For the same compound, the Difference [2, 5] was −0.30, the Cholesterol-free [2, 6] was 0.9648 and the Complete ([2]; NCI-H292 cells, complete media) was 0.6619.

`O=C(O)C1=C(CSc2nnnn2CS(=O)(=O)O)CS[C@@H]2[C@H](NC(=O)[C@H](O)c3ccccc3)C(=O)N12` [Cefonicid (sodium)] was tested, and the “Cholesterol-free media + simvastatin (0.04 μM)” value [1, 7] was 1.25, the “Complete Media” value [1, 8] was 1.107 and the Difference [1, 4] was −0.14. It also gave a Difference [2, 5] of 0.00, a Cholesterol-free [2, 9] of 0.833 and a Complete [2, 10] of 0.8286.

For `O=[N+]([O-])c1ccc(O)c2ncccc12` [Nitroxoline], the “Cholesterol-free media + simvastatin (0.04 μM)” value [1, 7] was 1.871, the “Complete Media” value [1, 8] was 1.743 and the Difference [1, 4] was −0.13. The Cholesterol-free [2, 9] was 0.8448, the Complete [2, 10] was 1.027 and the Difference [2, 11] was 0.18.

`CN1CC2c3ccccc3Oc3ccc(Cl)cc3C2C1` (centres unmarked) [Asenapine (hydrochloride)] was tested, and the “Cholesterol-free media + simvastatin (0.04 μM)” value [1, 12] was 1.244, the “Complete Media” value [1, 13] was 1.302 and the Difference [1, 14] was 0.06. For the same compound, the Cholesterol-free [2, 9] was 1.288, the Complete [2, 10] was 1.388 and the Difference [2, 11] was 0.10.

In the case of `C[C@H](O)C(=O)Nc1c(I)c(C(=O)NC(CO)CO)c(I)c(C(=O)NC(CO)CO)c1I` [Iopamidol], the “Cholesterol-free media + simvastatin (0.04 μM)” value [1, 15] is reported as 1.516, the “Complete Media” value [1, 16] is reported as 1.092 and the Difference [1, 4] is reported as −0.42. The Difference [2, 17] was −0.15, the Cholesterol-free [2, 18] was 1.136 and the Complete [2, 19] was 0.9871.

For `CCN(CC)CCNC(=O)c1c(C)[nH]c(/C=C2\C(=O)Nc3ccc(F)cc32)c1C` [Sunitinib], the “Cholesterol-free media + simvastatin (0.04 μM)” value [1, 15] was 1.48, the “Complete Media” value [1, 16] was 1.121 and the Difference [1, 4] was −0.36. It also gave a Difference [2, 5] of −0.01, a Cholesterol-free [2, 9] of 0.5331 and a Complete [2, 10] of 0.523.

In the case of `CCCCCCCCc1ccc(CCC(N)(CO)CO)cc1` [Fingolimod], the “Cholesterol-free media + simvastatin (0.04 μM)” value [1, 7] is reported as 1.233, the “Complete Media” value [1, 8] is reported as 1.097 and the Difference [1, 4] is reported as −0.14. The Difference [2, 20] was −0.48, the Cholesterol-free [2, 21] was 1.481 and the Complete [2, 22] was 0.9982.

For `Cc1cc2nc3c(=O)[nH]c(=O)nc-3n(C[C@H](O)[C@H](O)[C@H](O)COP(=O)(O)OP(=O)(O)OC[C@H]3O[C@@H](n4cnc5c(N)ncnc54)[C@H](O)[C@@H]3O)c2cc1C`, the “Cholesterol-free media + simvastatin (0.04 μM)” value [1, 3] was 1.111, the “Complete Media” value ([1]; drug in complete media) was 0.8891 and the Difference [1, 4] was −0.22. It also gave a Difference [2, 17] of −0.12, a Cholesterol-free [2, 18] of 0.9242 and a Complete [2, 19] of 0.8033.

With `CC[C@@H]1CN(C(=O)NCC(F)(F)F)C[C@@H]1c1cnc2cnc3[nH]ccc3n12` [Upadacitinib] the “Cholesterol-free media + simvastatin (0.04 μM)” value [1, 3] was 0.7425, the “Complete Media” value ([1]; drug in complete media) was 0.5732 and the Difference [1, 4] was −0.17. The Difference [2, 20] was −0.51, the Cholesterol-free [2, 21] was 1.213 and the Complete [2, 22] was 0.7003.

With `Nc1ccc(S(=O)(=O)Nc2ccc(Cl)nn2)cc1` [Sulfachloropyridazine] the “Cholesterol-free media + simvastatin (0.04 μM)” value [1, 23] was 0.9751, the “Complete Media” value [1, 24] was 0.932 and the Difference [1, 25] was −0.04. For the same compound, the Difference [2, 17] was −0.17, the Cholesterol-free [2, 18] was 1.057 and the Complete [2, 19] was 0.8847.

For `COC(=O)/C=C/C(=O)OC` [Dimethyl fumarate], the “Cholesterol-free media + simvastatin (0.04 μM)” value [1, 7] was 0.991, the “Complete Media” value [1, 8] was 0.9095 and the Difference [1, 4] was −0.08. It also gave a Difference [2, 17] of −0.13, a Cholesterol-free [2, 18] of 0.8617 and a Complete [2, 19] of 0.7326.

In the case of (−)-Limonene, the “Complete Media” value [1, 8] is reported as 1.422, the Difference [1, 14] is reported as 0.38 and the Cholesterol-free [2, 9] is reported as 1.299. It also gave a Complete [2, 10] of 1.515 and a Difference [2, 11] of 0.22.

In the case of `N#Cc1ccnc(N2C(=O)CC[C@H]2C(=O)N(c2cncc(F)c2)[C@H](C(=O)NC2CC(F)(F)C2)c2ccccc2Cl)c1` [Ivosidenib], the “Cholesterol-free media + simvastatin (0.04 μM)” value [1, 12] is reported as 0.8742, the “Complete Media” value [1, 13] is reported as 0.9265 and the Difference [1, 14] is reported as 0.05. For the same compound, the Difference [2, 17] was −0.17, the Cholesterol-free [2, 18] was 0.9061 and the Complete [2, 19] was 0.7326.

For `C=CCOc1ccccc1OCC(O)CNC(C)C` (centres unmarked) [Oxprenolol (hydrochloride)], the “Cholesterol-free media + simvastatin (0.04 μM)” value [1, 12] was 0.8718, the “Complete Media” value [1, 13] was 0.9135 and the Difference [1, 14] was 0.04. For the same compound, the Cholesterol-free [2, 9] was 1.177, the Complete [2, 10] was 1.262 and the Difference [2, 11] was 0.09.

For `CC(C)(C)C(=O)OCOC(=O)[C@@H]1N2C(=O)[C@@H](/N=C/N3CCCCCC3)[C@H]2SC1(C)C` [Pivmecillinam (hydrochloride)], the “Cholesterol-free media + simvastatin (0.04 μM)” value [1, 3] was 1.219, the “Complete Media” value ([1]; drug in complete media) was 1.044 and the Difference [1, 4] was −0.18. For the same compound, the Difference [2, 20] was −0.49, the Cholesterol-free [2, 21] was 1.646 and the Complete [2, 22] was 1.161.

For `CCN(CC)CC(=O)Nc1c(C)cccc1C` [Lidocaine (hydrochloride)], the “Cholesterol-free media + simvastatin (0.04 μM)” value [1, 23] was 0.8862, the “Complete Media” value [1, 24] was 0.8646 and the Difference [1, 25] was −0.02. The Difference [2, 5] was −0.22, the Cholesterol-free [2, 6] was 1.21 and the Complete ([2]; NCI-H292 cells, complete media) was 0.9883.

`C[N+]1(C)[C@@H]2CC[C@H]1C[C@@H](OC(=O)C(CO)c1ccccc1)C2` (some centres unmarked) [Atropine methyl bromide] was tested, and the “Cholesterol-free media + simvastatin (0.04 μM)” value [1, 3] was 1.143, the “Complete Media” value ([1]; drug in complete media) was 0.9562 and the Difference [1, 4] was −0.19. It also gave a Cholesterol-free [2, 9] of 1.114, a Complete [2, 10] of 1.708 and a Difference [2, 11] of 0.59.

With `CCOC(=O)c1ccc(N)cc1` [Benzocaine] the “Cholesterol-free media + simvastatin (0.04 μM)” value [1, 15] was 1.309, the “Complete Media” value [1, 16] was 1.007 and the Difference [1, 4] was −0.30. For the same compound, the Difference [2, 5] was −0.30, the Cholesterol-free [2, 6] was 0.9439 and the Complete ([2]; NCI-H292 cells, complete media) was 0.6479.

In the case of `Cc1ncc(C[n+]2csc(CCO)c2C)c(N)n1` [Thiamine (hydrochloride)], the “Cholesterol-free media + simvastatin (0.04 μM)” value [1, 12] is reported as 1.098, the “Complete Media” value [1, 13] is reported as 1.117 and the Difference [1, 14] is reported as 0.02. For the same compound, the Difference [2, 5] was −0.20, the Cholesterol-free [2, 6] was 1.324 and the Complete ([2]; NCI-H292 cells, complete media) was 1.125.

With `C=CCc1cc(OC)c(O)c(C(=O)NCCO)c1` [Alibendol] the “Cholesterol-free media + simvastatin (0.04 μM)” value [1, 7] was 0.9518, the “Complete Media” value [1, 8] was 0.8774 and the Difference [1, 4] was −0.07. It also gave a Difference [2, 5] of −0.25, a Cholesterol-free [2, 6] of 1.047 and a Complete ([2]; NCI-H292 cells, complete media) of 0.797.

In the case of `COc1ccc(CCO[C@@H]2CCCC[C@H]2N2CC[C@@H](O)C2)cc1OC` [Vernakalant (Hydrochloride)], the “Cholesterol-free media + simvastatin (0.04 μM)” value [1, 12] is reported as 1.555, the “Complete Media” value [1, 13] is reported as 1.614 and the Difference [1, 14] is reported as 0.06. For the same compound, the Difference [2, 5] was −0.26, the Cholesterol-free [2, 6] was 1.252 and the Complete ([2]; NCI-H292 cells, complete media) was 0.9876.

With `CCCCOc1cc(C(=O)NCCN(CC)CC)c2ccccc2n1` [Dibucaine (hydrochloride)] the “Cholesterol-free media + simvastatin (0.04 μM)” value [1, 7] was 0.7966, the “Complete Media” value [1, 8] was 1.391 and the Difference [1, 14] was 0.59. It also gave a Difference [2, 20] of −0.71, a Cholesterol-free [2, 21] of 1.433 and a Complete [2, 22] of 0.7196.

With `O=C1CC[C@@H](C(=O)N2CSC[C@H]2C(=O)O)N1` [Pidotimod] (HELM PEPTIDE1{[Glp].[O=C(O)[C@@H]1CSCN1[*:1]]}$$$$V2.0) the “Cholesterol-free media + simvastatin (0.04 μM)” value [1, 23] was 1.016, the “Complete Media” value [1, 24] was 1.03 and the Difference [1, 25] was 0.01. It also gave a Cholesterol-free [2, 6] of 1.383, a Complete ([2]; NCI-H292 cells, complete media) of 0.9708 and a Difference ([2]; complete vs cholesterol-free media, greater than 0 enhanced anti-cancer activity, below 0 antagonists) of −0.41.

With Lapatinib (ditosylate) the “Cholesterol-free media + simvastatin (0.04 μM)” value [1, 23] was 0.4889, the “Complete Media” value [1, 24] was 0.4758 and the Difference [1, 25] was −0.01. The Difference [2, 17] was −0.15, the Cholesterol-free [2, 18] was 0.4354 and the Complete [2, 19] was 0.2847.
